Laboratory results taken from patent US6358491B1, “Somatostatin analogs” (Berlex Laboratories, Inc., priority 1999, dated 2002).
Read-outs that look alike come from different tables or passages of the source. Where a SMILES comes first, the peptide text is derived from it. [ ]: non-standard residue; d: D form. ξ: configuration not given here. NMehCys = CN[C@@H](CCS)C(=O)O; Thr(3ξ) = CC(O)[C@H](N)C(=O)O

Experiments:
SSTRs, NCI-H69 membranes = assay: [125I]SST-14 binding to NCI-H69 cell membranes (SSTR affinity); parameters: species or system human; details: inhibition of [125I]SST-14 binding, two-site fit
Experimental: [^125I-Tyr^11] somatostatin-14 ([^125I]SST-14) was obtained from Amersham. Unlabeled somatostatin-14 was purchased either from BACHEM (Torrance, Calif.) or from Sigma Chemical Co. (St. Louis, Mo.). Protease inhibitors, leupeptin, aprotinin, bacitracin, and benzamidine and other reagents were obtained from Sigma. Protease inhibitors were prepared in dimethylsulfoxide (DMSO) at a concentration 500×higher than the final assay concentration. The prepared protease solution was stored at −20° C. and diluted with the buffer solution before use.
Membrane preparations used in these studies were prepared from two commercially available tumor cell lines, the human small cell lung cancer cell line, NCI-H69, and the rat pancreatic tumor cell line, AR42J, obtained from American Type Culture Collection (ATCC) (Manassas, Va.). NCI-H69 cells were maintained by serial passage in RPMI 1640 with 10% fetal calf serum. AR42J cells were maintained in F-12K medium containing 20% fetal calf serum. Cells in culture flasks were incubated at 37° C. with 5% CO2 in air atmosphere following the recommendations of the “Product Sheet” from ATCC.
Cultured cells were first detached from plates with phosphate-buffered saline, pH 7.4, containing 2 mM EDTA, and centrifuged at 1,500×g for 10 min. Cells were then resuspended in 5-10 mL of the homogenization buffer (1 mM sodium bicarbonate, pH 7.4, 1 mM EDTA, 1 mM EGTA, 2.5 mM DTT, 5 μg/mL leupeptin, 5 μg/mL aprotinin, 100 μg/mL bacitracin, 100 μg/mL benzamidine) for 10 min on ice. The cells were lysed for 30 sec twice in a polytron with a setting at 5. The lysate was centrifuged at 1,000×g for 10 min at 4° C. The supernatant was centrifuged at 40,000×g for 20 min at 4° C. This step was repeated twice with the homogenization buffer in the absence of protease inhibitors. The pellet was then resuspended at 1-5 mg membrane protein/mL in 25 mM Tris, pH 7.4 without the addition of protease inhibitors and the membranes were stored at −80° C. before use. Membrane protein concentration was determined spectroscopically using the bicinchonic acid (BCA) protein assay kit (Pierce Chemical Inc. (Rockford, Ill.).
All [^125I]SST-14 binding assays were performed in 0.5 mL binding buffer containing 50 mM HEPES, pH 7.5, 10 mM MgCl2, 0.25% BSA (w/v) containing protease inhibitors (same as above) and incubated at 37° C. for 45 minutes. After incubation, samples were kept at 4° C. and rapidly filtered under vacuum through a Whatman GF/B glass fiber filter with a 12-well harvester (Skatron Instruments Inc., Sterling, Va.). The filter was washed for 9 seconds with cold 50 mM HEPES, pH 7.5, 10 mM MgCl2, 0.25% BSA (w/v). Thirty-five […] of [^125I]SST-14 from Amersham was used in each tube. Peptides were solubilized in DMSO and serially diluted with DMSO. Five μL of peptide in DMSO was used to obtain the final concentration. DMSO (5 μL) was added to the tube without the addition of any peptide or unlabeled SST-14, so that each tube contained 1% DMSO. Non-specific binding was defined as the binding of [^125I]SST-14 which was not displaceable with an excess of unlabeled SST-14 at a concentration of 1×10^−6 M. The bound [^125I]SST-14 without or with excess unlabeled SST-14 (1×10^−6 M) was defined as total binding and nonspecific binding, respectively. The difference between total and nonspecific binding was defined as specific binding. The percent inhibition (% Inh) by peptide was expressed as
% Inh=(total binding−total binding in the presence of peptide)/specific binding×100%
Inclusion of protease inhibitors in homogenizing medium as well as assay buffer is essential to maintain the integrity of both [^125I]SST-14 and somatostatin analogs for the receptor binding assay and to obtain optimal specific binding. The highest specific binding was observed when MgCl2 (10 mM) was included. Membranes were finally resuspended in a sodium-free medium and receptor binding assays were performed in the absence of sodium ions. […]

AR42J tumor xenografts = assay: Biodistribution of 99mTc-labeled compounds in nude mice with AR42J tumor xenografts; assay type: in vivo; details: 99mTc-labeled compound, 90 minutes post-injection; for TUMOR: i.v.; for T:B: tumor to blood ratio; for T:M: tumor to muscle ratio
Experimental: Rat pancreatic AR42J cells (ATCC, Rockville, Md., USA) were grown in Modified Ham's F12K medium (Cat. No. N-3520, Sigma, St. Louis, Mo., USA) containing 20% fetal bovine serum (FCS) (Cat. No. 1224, Lot No. 9702058, Sigma, St. Louis, Mo., USA) under sterile conditions in 95% humidity and 5% CO2. At a density of approximately 10×10^6 cells per T150 flask, the cells were harvested with trypsin and collected by centrifugation at 2400 rpm (800×g) for 15 minutes in a benchtop centrifuge (IEC Centra-8 tabletop centrifuge, International Equipment Company, Needham, Mass., USA). The cells were resuspended in medium containing 20% FCS for implantation.
Six female nude mice (CrlLNU/NU-nuBR, 6-8 weeks old) were injected subcutaneously into the right flank with tumor cells (2×10^7/100 μL) in 20% matrigel (Collaborative Biomedical Products, Chicago, Ill., USA). Fourteen days after inoculation tumors were visible in all animals. Three weeks after inoculation, tumors were aseptically dissected, minced and implanted into 60 nude mice using a trochar. The tumor xenografts from the second passage were used for biodistribution studies.
A dose of approximately 50-100 μCi ^99mTc-labeled compound/mouse was injected intravenously in a total volume of 100 μL. Mice were sacrificed 90 minutes post-injection by decapitation and the trunk blood was collected. Tumors (1 to 3 per mouse), liver, gastrointestinal tract, kidneys, and samples of muscle from both legs (quadriceps femoralis) were collected, weighed, and counted for radioactivity.

[1] = read-out: IC50 Values for Uncomplexed Compounds, NCI-H69 (first value)
[2] = read-out: IC50 Values for Uncomplexed Compounds, NCI-H69 (second value)

| Compound | IC50 (SSTRs, NCI-H69 membranes; [1]) [nM] | IC50 (SSTRs, NCI-H69 membranes; [2]) [nM] | TUMOR (AR42J tumor xenografts) [%ID/g] | T:B (AR42J tumor xenografts) | T:M (AR42J tumor xenografts) |
| --- | --- | --- | --- | --- | --- |
| C[C@@H](O)[C@@H]1NC(=O)[C@H](CCCCN)NC(=O)[C@@H](Cc2c[nH]c3ccccc23)NC(=O)[C@H](Cc2ccc(O)cc2)NC(=O)[C@H](CCSCC(=O)NC[C@H](N)C(=O)N[C@@H](CN)C(=O)N[C@@H](CS)C(=O)N[C@H](CO)[C@@H](C)O)N(C)C(=O)[C@H](Cc2ccccc2)NC1=O [cyclo-Tyr-D-Trp-Les-Thr-Phe-(N—CH3)Hcy(CH2 CO-β-Dap-Dap-Cys-Thr(ol))] | 0.449 | 46.8 |  |  |  |
| C[C@@H](O)[C@@H]1NC(=O)[C@H](CCCCN)NC(=O)[C@@H](Cc2c[nH]c3ccccc23)NC(=O)[C@H](Cc2ccc(O)cc2)NC(=O)[C@H](CCSCC(=O)N[C@@H](CO)C(=O)N[C@@H](CO)C(=O)N[C@@H](CS)C(=O)NCCOCCOCCN)N(C)C(=O)[C@H](Cc2ccccc2)NC1=O [cyclo-Tyr-D-Trp-Lys-Thr-Phe-(N—CH3)Hcy(CH2 CO-Ser-Ser-Cys-NH(CH2 CH2 O)2 CH2 CH2 NH2)] | 0.645 | > 1000 | 10.6 | 44 | 132 |
| C[C@@H](O)[C@H](NC(=O)CSCC[C@H]1C(=O)N[C@@H](Cc2ccc(O)cc2)C(=O)N[C@H](Cc2c[nH]c3ccccc23)C(=O)N[C@@H](CCCCN)C(=O)N[C@@H]([C@@H](C)O)C(=O)N[C@@H](Cc2ccccc2)C(=O)N1C)C(=O)NCC(=O)NCC(=O)N[C@@H](CS)C(N)=O [cyclo-Tyr-D-Trp-Lys-Thr-Phe-(N—CH3)Hcy(CH2 CO-Thr-Gly-Gly-Cys-NH2)] | 1.63 | 24300 | 3.81 | 30 | 95 |
| C[C@@H](O)[C@@H]1NC(=O)[C@H](CCCCN)NC(=O)[C@@H](Cc2c[nH]c3ccccc23)NC(=O)[C@H](Cc2ccc(O)cc2)NC(=O)[C@H](CCSCC(=O)NC[C@H](N)C(=O)N[C@@H](CCCNC(=N)N)C(=O)N[C@@H](CS)C(=O)N[C@H](CO)[C@@H](C)O)N(C)C(=O)[C@H](Cc2ccccc2)NC1=O [cyclo-Tyr-D-Trp-Lys-Thr-Phe-(N—CH3)Hcy(CH2 CO-β-Dap-Arg-Cys-Thr(ol))] | 0.413 | < 0.001 |  |  |  |
| C[C@@H](O)[C@@H]1NC(=O)[C@H](CCCCN)NC(=O)[C@@H](Cc2c[nH]c3ccccc23)NC(=O)[C@H](Cc2ccc(O)cc2)NC(=O)[C@H](CCSCC(=O)NC[C@H](N)C(=O)N[C@@H](CCN)C(=O)N[C@@H](CS)C(=O)N[C@H](CO)[C@@H](C)O)N(C)C(=O)[C@H](Cc2ccccc2)NC1=O [cyclo-Tyr-D-Trp-Lys-Thr-Phe-(N—CH3)Hcy(CH2 CO-β-Dap-Dab-Cys-Thr(ol))] | 0.642 | > 1000 |  |  |  |
| C[C@@H](O)[C@H](NC(=O)[C@H](CS)NC(=O)[C@H](CCN)NC(=O)[C@@H](N)CNC(=O)CSCC[C@H]1C(=O)N[C@@H](Cc2ccc(O)cc2)C(=O)N[C@H](Cc2c[nH]c3ccccc23)C(=O)N[C@@H](CCCCN)C(=O)N[C@@H]([C@@H](C)O)C(=O)N[C@@H](Cc2ccccc2)C(=O)N1C)C(=O)O [cyclo-Tyr-D-Trp-Lys-Thr-Phe-(N—CH3)Hcy(CH2 CO-β-Dap-Dab-Cys-Thr)] | 1.25 | 1.25 |  |  |  |
| C[C@@H](O)[C@@H]1NC(=O)[C@H](CCCCN)NC(=O)[C@@H](Cc2c[nH]c3ccccc23)NC(=O)[C@H](Cc2ccc(O)cc2)NC(=O)[C@H](CCSCC(=O)NC[C@H](N)C(=O)N[C@@H](Cc2c[nH]cn2)C(=O)N[C@@H](CS)C(=O)N[C@H](CO)[C@@H](C)O)N(C)C(=O)[C@H](Cc2ccccc2)NC1=O [cyclo-Tyr-D-Trp-Lys-Thr-Phe-(N—CH3)Hcy(CH2 CO-β-Dap-His-Cys-Thr(ol))] | 0.861 |  | 15.5 | 29 | 96 |
| C[C@@H](O)[C@H](NC(=O)[C@H](CS)NC(=O)[C@H](Cc1ccc(N)cc1)NC(=O)[C@@H](N)CNC(=O)CSCC[C@H]1C(=O)N[C@@H](Cc2ccc(O)cc2)C(=O)N[C@H](Cc2c[nH]c3ccccc23)C(=O)N[C@@H](CCCCN)C(=O)N[C@@H]([C@@H](C)O)C(=O)N[C@@H](Cc2ccccc2)C(=O)N1C)C(=O)O [cyclo-Tyr-D-Trp-Lys-Thr-Phe-(N—CH3)Hcy(CH2 CO-β-Dap-Phe(4-NH2)-Cys-Thr)] | 0.641 | 0.641 |  |  |  |
| C[C@@H](O)[C@@H]1NC(=O)[C@H](CCCCN)NC(=O)[C@@H](Cc2c[nH]c3ccccc23)NC(=O)[C@H](Cc2ccc(O)cc2)NC(=O)[C@H](CCSCC(=O)NCCC[C@H](N)C(=O)NCC(=O)N[C@@H](CS)C(N)=O)N(C)C(=O)[C@H](Cc2ccccc2)NC1=O [cyclo-Tyr-D-Trp-Lys-Thr-Phe-(N—CH3)Hcy(CH2 CO-δ-Orn-Gly-Cys-NH2)] |  |  | 1.8 | 29 | 95 |
| CC(O)[C@@H]1NC(=O)[C@H](CCCCN)NC(=O)[C@@H](Cc2c[nH]c3ccccc23)NC(=O)[C@H](Cc2ccc(O)cc2)NC(=O)[C@H](CCS)N(C)C(=O)[C@H](Cc2ccccc2)NC1=O (stereo partly drawn) [cyclo-YWDKTF.(N—CH3).Hcy., cyclo-Tyr-D-Trp-Lys-Thr-Phe-(N—CH3)Hcy] (cyclo(F[NMehCys]Y[dW]K[Thr(3ξ)])) | 0.21 |  |  |  |  |
| C[C@@H](O)[C@H](NC(=O)[C@H](CS)NC(=O)[C@H](Cc1ccc(N)cc1)NC(=O)[C@@H](N)CNC(=O)CSCC[C@H]1C(=O)N[C@@H](Cc2ccc(O)cc2)C(=O)N[C@H](Cc2c[nH]c3ccccc23)C(=O)N[C@@H](CCCCN)C(=O)N[C@@H]([C@@H](C)O)C(=O)N[C@@H](Cc2ccccc2)C(=O)N1C)C(=O)NC(CO)CO [cyclo-YWDKTF.(N—CH3)Hcy(CH2CO.β-Dap.F(4-NH2).CT.S(ol))] | 0.388 | 0.388 |  |  |  |
| CC(C)[C@@H]1NC(=O)[C@H](CCCCN)NC(=O)[C@@H](Cc2c[nH]c3ccccc23)NC(=O)[C@H](Cc2ccc(O)cc2)NC(=O)[C@H](CCS)N(C)C(=O)[C@H](Cc2ccccc2)NC1=O [cyclo-YWDKVF.(N—CH3).Hcy.] (cyclo(Y[dW]KVF[NMehCys])) | 0.21 |  |  |  |  |
